Measured values published in ChEMBL document CHEMBL4483862, “Open-source discovery of chemical leads for next-generation chemoprotective antimalarials” (2018).

System: Plasmodium berghei
Assay: Luciferase/luciferin-expressing antifolate-resistant parasites were used to infect a culture of HepG2 cells that were pre-incubated with compounds. Infected hepatocytes emit light due to the luciferase reaction. Assay results are presented as the percent inhibition of light emission compared to control. […]
Assay type: functional
Conditions: sporozoite; for IC90: read-out: LUCIFERASE INFECTION ASSAY - IC90
[1] = read-out: LUCIFERASE INFECTION ASSAY - IC50

| SMILES | IC90 | IC50 [1] | also measured |
| --- | --- | --- | --- |
| CC1CCc2c(sc3nc(Sc4nnnn4-c4ccccc4)nc(N)c23)C1 (stereo unspecified) | > 10 µM | – | IC50 (PBLUC_HILL_SLOPE 2.12, PBLUC_R_SQUARED 0.375, read-out: LUCIFERASE INFECTION ASSAY - IC50): 3.69 µM |
| CCS(=O)(=O)N1CCC(C(=O)N(Cc2ccccc2)c2nc(-c3ccc(F)cc3)cs2)CC1 | > 10 µM | – | IC50 (PBLUC_HILL_SLOPE 11.3, PBLUC_R_SQUARED 0.297, read-out: LUCIFERASE INFECTION ASSAY - IC50): 8.84 µM |
| CCCc1cc(=O)n(-c2ccc(Cl)cc2)[nH]1 | 5.8 µM | – | IC50 (FFLUC_HILL_SLOPE 16.5, FFLUC_R_SQUARED 0.266, HEPG2TOX_HILL_SLOPE 6.52, HEPG2TOX_R_SQUARED 0.85, PBLUC_HILL_SLOPE 14.3, PBLUC_R_SQUARED 0.712, read-out: LUCIFERASE INFECTION ASSAY - IC50): 4.97 µM |
| Cc1ccc(OCCOC(=O)c2cc(=O)[nH]c3ccccc23)cc1 | > 10 µM | – | IC50 (FFLUC_HILL_SLOPE 2.13, FFLUC_R_SQUARED 0.116, read-out: LUCIFERASE INFECTION ASSAY - IC50): > 10 µM |
| Cc1cc(=O)nc(N/N=C/c2ccccc2O)[nH]1 | > 13.5 µM | – | IC50 (HEPG2TOX_HILL_SLOPE 1.27, HEPG2TOX_R_SQUARED 0.681, PBLUC_HILL_SLOPE 2.52, PBLUC_R_SQUARED 0.516, read-out: LUCIFERASE INFECTION ASSAY - IC50): 6.93 µM |
| COc1ccc(C(=O)/C(C#N)=N/Nc2cccc(Cl)c2Cl)cc1 | 9.32 µM | – | IC50 (HEPG2TOX_HILL_SLOPE 1.05, HEPG2TOX_R_SQUARED 0.901, PBLUC_HILL_SLOPE 1.18, PBLUC_R_SQUARED 0.493, read-out: LUCIFERASE INFECTION ASSAY - IC50): 1.44 µM |
| Nc1nccnc1C(=O)Nc1nc2ccc(Oc3ccccc3)cc2s1 | > 10 µM | > 10 µM | – |
| C=C(C)COc1ccc(-c2[nH]nc(C)c2-c2ccc(OC)c(OC)c2)c(O)c1 | 1.84 µM | – | IC50 (HEPG2TOX_HILL_SLOPE 1.51, HEPG2TOX_R_SQUARED 0.867, PBLUC_HILL_SLOPE 1.78, PBLUC_R_SQUARED 0.654, read-out: LUCIFERASE INFECTION ASSAY - IC50): 0.535 µM |
| CN(C)CCNC(=O)c1cccc(-c2cnc3ccc(-c4cccc(CO)c4)nn23)c1 | 1.58 µM | – | IC50 (HEPG2TOX_HILL_SLOPE 0.999, HEPG2TOX_R_SQUARED 0.943, PBLUC_HILL_SLOPE 3.71, PBLUC_R_SQUARED 0.586, read-out: LUCIFERASE INFECTION ASSAY - IC50): 0.873 µM |
| CCOc1cc(C2NCC(c3ccccc3)c3c2[nH]c2ccccc32)ccc1OCC(C)C (stereo unspecified) | > 10 µM | – | IC50 (PBLUC_HILL_SLOPE 4.52, PBLUC_R_SQUARED 0.531, read-out: LUCIFERASE INFECTION ASSAY - IC50): 6.16 µM |
| CN(C)c1cccc(-c2cnc(N)c(-c3ccc(O)cc3)c2)c1 | > 10.8 µM | – | IC50 (PBLUC_HILL_SLOPE 24.2, PBLUC_R_SQUARED 0.305, read-out: LUCIFERASE INFECTION ASSAY - IC50): 10.5 µM |
| CCN(CC)S(=O)(=O)c1ccc(C)c(NC(=O)CCc2ncc(-c3ccc(C)cc3)o2)c1 | 8.55 µM | – | IC50 (HEPG2TOX_HILL_SLOPE 2.43, HEPG2TOX_R_SQUARED 0.985, PBLUC_HILL_SLOPE 1.82, PBLUC_R_SQUARED 0.587, read-out: LUCIFERASE INFECTION ASSAY - IC50): 2.56 µM |
| COc1cccc(-c2nc(CSc3nc4ccccc4c(=O)n3C)cs2)c1 | 3.7 µM | – | IC50 (FFLUC_HILL_SLOPE 18, FFLUC_R_SQUARED 0.516, HEPG2TOX_HILL_SLOPE 5.55, HEPG2TOX_R_SQUARED 0.861, PBLUC_HILL_SLOPE 17.5, PBLUC_R_SQUARED 0.299, read-out: LUCIFERASE INFECTION ASSAY - IC50): 3.27 µM |
| Cc1cccc(N2CCN(CC(=O)c3ccc[nH]3)CC2)c1C | > 10 µM | > 10 µM | – |
| COc1ccc(-c2nonc2NC(=O)c2oc3ccc(F)cc3c2C)cc1 | 1.27 µM | – | IC50 (HEPG2TOX_HILL_SLOPE 1.77, HEPG2TOX_R_SQUARED 0.888, PBLUC_HILL_SLOPE 11.3, PBLUC_R_SQUARED 0.0148, read-out: LUCIFERASE INFECTION ASSAY - IC50): 1.05 µM |
| CC1CCC(NC(=O)[C@H](Cc2ccccc2)NC(=O)C(c2ccccc2)c2ccccc2)CC1 (stereo partly specified) | > 10 µM | – | IC50 (PBLUC_HILL_SLOPE 2.1, PBLUC_R_SQUARED 0.545, read-out: LUCIFERASE INFECTION ASSAY - IC50): 4.82 µM |
| COc1ccccc1CN1CCN2C(=O)[C@@H](Cc3ccc(O)cc3)NC(=O)[C@H]2C1 | > 8.34 µM | – | IC50 (PBLUC_HILL_SLOPE 1.8, PBLUC_R_SQUARED 0.229, read-out: LUCIFERASE INFECTION ASSAY - IC50): 4.45 µM |
| Cc1[nH]c2ccc(C(=O)Nc3nc(CN4CCCC(C)C4)cs3)cc2c1C (stereo unspecified) | > 10 µM | > 10 µM | – |
| CC1(C)CC(=O)C2Sc3ccccc3N=C2C1 (stereo unspecified) | > 13.5 µM | – | IC50 (PBLUC_HILL_SLOPE 1.5, PBLUC_R_SQUARED 0.224, read-out: LUCIFERASE INFECTION ASSAY - IC50): 10.8 µM |
| Cc1cccc(N2CCN(C(=O)c3cccc(S(=O)(=O)N4CCc5ccccc5C4)c3)CC2C)c1 (stereo unspecified) | > 10 µM | – | IC50 (HEPG2TOX_HILL_SLOPE 1.53, HEPG2TOX_R_SQUARED 0.865, read-out: LUCIFERASE INFECTION ASSAY - IC50): > 10 µM |
| Cc1[nH]c2ccccc2c1/C=N/N(Cc1ccccc1)c1ccccc1 | > 10 µM | > 10 µM | – |
| Cc1ccc(C)c(CN2CCC3(CC2)C(=O)N(CCCc2cccnc2)C(=O)N3Cc2ccccc2)c1 | 5.55 µM | 4.38 µM | – |

| SMILES | IC90 | IC50 [1] | also measured |
| --- | --- | --- | --- |
| CCOC(=O)c1ccc(N2C(=O)c3ccccc3C(C=NNC(=O)Cc3ccc(F)cc3)C2=O)cc1 (stereo unspecified) | > 10 µM | – | IC50 (HEPG2TOX_HILL_SLOPE 7.51, HEPG2TOX_R_SQUARED 0.875, PBLUC_HILL_SLOPE 2.71, PBLUC_R_SQUARED 0.377, read-out: LUCIFERASE INFECTION ASSAY - IC50): 8.78 µM |
| CC(C)=CC(=O)NC(c1ccccc1)c1ccc(Cl)cc1 (stereo unspecified) | > 10 µM | > 10 µM | – |
| CCS(=O)(=O)c1ncc(Cl)c(C(=O)Nc2ccccc2C(F)(F)F)n1 | 4.41 µM | – | IC50 (HEPG2TOX_HILL_SLOPE 4.53, HEPG2TOX_R_SQUARED 0.715, PBLUC_HILL_SLOPE 8.07, PBLUC_R_SQUARED 0.684, read-out: LUCIFERASE INFECTION ASSAY - IC50): 3.36 µM |
| Cc1nc(=O)c(CCC(=O)Nc2ncc(Cc3cccc(C)c3Cl)s2)c(C)[nH]1 | > 10 µM | 8.8 µM | – |
| CC(C#N)Sc1nc(Nc2ccccc2)c2ccccc2n1 (stereo unspecified) | > 10 µM | > 10 µM | – |
| CN(C)CCN1CCN(c2cccc(-c3ccc(-c4ccccc4)cc3)n2)CC1 | > 8.54 µM | 5.35 µM | – |
| COCCn1cnc2cnc(Nc3cccc(F)c3)cc21 | > 10 µM | > 10 µM | – |
| Cc1sc2nc(-c3cccs3)nc(N3CCCN(CC(=O)NC(C)C)CC3)c2c1C | > 10 µM | – | IC50 (PBLUC_HILL_SLOPE 9.52, PBLUC_R_SQUARED 0.368, read-out: LUCIFERASE INFECTION ASSAY - IC50): 8.07 µM |
| COc1cccc(-c2nc3ccc(NC(=O)Nc4ccc(Cl)c(C(F)(F)F)c4)cn3n2)c1 | 9.24 µM | – | IC50 (FFLUC_HILL_SLOPE 14.4, FFLUC_R_SQUARED 0.104, PBLUC_HILL_SLOPE 6.95, PBLUC_R_SQUARED 0.291, read-out: LUCIFERASE INFECTION ASSAY - IC50): 6.74 µM |
| CC(C)Cn1c(=O)n(C)c(=O)c2c(SCC#N)nc(CC(C)(C)C)nc21 | > 10 µM | > 10 µM | – |
| CCOc1cc(N2CCOCC2)c(OCC)cc1NC(=O)COc1ccc(-c2nnco2)cc1 | > 10 µM | > 10 µM | – |
| CCc1cccc(CC)c1N1C(=O)/C(=C\c2ccc(C(C)(C)C)cc2)N(C)C1=S | > 10 µM | – | IC50 (FFLUC_HILL_SLOPE 0.556, FFLUC_R_SQUARED 0.412, PBLUC_HILL_SLOPE 2.98, PBLUC_R_SQUARED 0.687, read-out: LUCIFERASE INFECTION ASSAY - IC50): 5.42 µM |
| Cc1cc(C(=O)CSc2nc3ccccc3c(=O)n2-c2ccc(OC(F)F)cc2)c(C)n1-c1ccc(F)c(Cl)c1 | > 10 µM | – | IC50 (FFLUC_HILL_SLOPE 1.77, FFLUC_R_SQUARED 0.792, PBLUC_HILL_SLOPE 12.5, PBLUC_R_SQUARED 0.0853, read-out: LUCIFERASE INFECTION ASSAY - IC50): 9.61 µM |
| CC(C)c1ccc(-c2nnc(NC(=O)CNC(=O)c3cccc(S(=O)(=O)N(C)C)c3)s2)cc1 | > 10 µM | – | IC50 (PBLUC_HILL_SLOPE 2.11, PBLUC_R_SQUARED 0.538, read-out: LUCIFERASE INFECTION ASSAY - IC50): 5.39 µM |
| Cc1cc(Oc2ccc(-c3ccccc3)cc2)nc(C)n1 | > 10 µM | > 10 µM | – |
| Cc1ccc(-c2cc(C(=O)Nc3nnc(C(C)C)s3)[nH]n2)c(O)c1C | > 9.23 µM | > 9.23 µM | – |
| Cc1cc(C)n(-c2ccc(S(N)(=O)=O)cc2)n1 | > 13.1 µM | – | IC50 (FFLUC_HILL_SLOPE 0.55, FFLUC_R_SQUARED 0.0304, read-out: LUCIFERASE INFECTION ASSAY - IC50): > 13.1 µM |
| NC(CCc1ccccc1)c1csc(NC(=O)Nc2cccc3ccccc23)n1 (stereo unspecified) | > 8.2 µM | 5.11 µM | – |
| CCOC(=O)c1sc(N2N=C3/C(=C/c4ccccc4Cl)CCCC3C2c2ccccc2Cl)nc1C (stereo unspecified) | > 10 µM | – | IC50 (FFLUC_HILL_SLOPE 1.4, FFLUC_R_SQUARED 0.297, PBLUC_HILL_SLOPE 2.64, PBLUC_R_SQUARED 0.0563, read-out: LUCIFERASE INFECTION ASSAY - IC50): 4.97 µM |
| COc1ccc(NCC2(c3ccnc(-c4ccccc4Cl)c3)CC2)cn1 | > 10 µM | – | IC50 (HEPG2TOX_HILL_SLOPE 2.53, HEPG2TOX_R_SQUARED 0.891, PBLUC_HILL_SLOPE 5.38, PBLUC_R_SQUARED 0.384, read-out: LUCIFERASE INFECTION ASSAY - IC50): 7.39 µM |
| Cc1ccc(NC(=O)COc2ccc3c(=O)c(-c4ccccc4)c(C)oc3c2)cc1[N+](=O)[O-] | > 10 µM | > 10 µM | – |
